In patent publication US10624828B2, “Personal care compositions comprising a 2-pyridinol N-oxide material and an iron chelator” (The Procter & Gamble Company, priority 2017, dated 2020):
Marks after values point to notes of the source that are not given here.

Legend:
[1] = NIST Standard Reference Database 46; cited from earlier work
[2] = tested on: Staphylococcus aureus ATCC 6538; assay: Combinatorial Minimum Inhibitory Concentration (cMIC), OD 620 nm; conditions: for MIC: minimum amount of chelant at which there is no bacteria growth: chelator alone (0 ppm piroctone olamine)
Description: A Combinatorial Minimum Inhibitory Concentration (“cMIC”) is used to determine the combinatorial effects of two chemicals on anti-bacterial activity in a tissue culture setting. Herein, the cMIC is a measure of the Minimum Inhibitory concentrations of 1-hydroxy-4-methyl-6-(2,4,4-trimethylpentyl)-2-pyridone monoethanolamine salt in combination with a chelant or vice versa.
Method Overview: • a. Each cMIC assay is run in triplicates. • b. Staphylococcus aureus ATCC 6538 is cultured on tryptic soy agar (TSA) (Oxoid CM0131) over 24 hours. The single colonies are then transferred into saline and mixed through vortex to obtain an optical density (OD) of 0.08-0.13 at 620 nm. 200 uL of this bacterial suspension is added to 19.8 mL of Mueller Hinton Broth (MHB) (BD 212322). This gives 5×10^5 cfu/mL. 100 uL of this bacteria-MHB mix is added to a 96 well flat-bottomed plate (TRP 92196). • c. 1-hydroxy-4-methyl-6-(2,4,4-trimethylpentyl)-2-pyridone monoethanolamine salt is pipetted into the wells in varying concentrations as indicated below. • d. Different Chelants are pipetted into the wells in varying concentrations, as indicated below. • e. The plates are then read using a spectrophotometer at 620 nm. This is the 0-hour reading. • f. The plates are incubated at 37° C. for 18 hours with shaking at 50 rpm. • g. The optical density of the plate is then measured using a spectrophotometer at 620 nm. • h. The OD value is calculated as subtraction of the readings between 18-hour and the 0-hour. • i. cMIC is determined as the minimal concentration of 1-hydroxy-4-methyl-6-(2,4,4-trimethylpentyl)-2-pyridone monoethanolamine salt in combination with a chelant or vice versa, corresponding to the well whose OD value is less than 10% of the OD value of the control well without 1-hydroxy-4-methyl-6-(2,4,4-trimethylpentyl)-2-pyridone monoethanolamine salt and chelator (full growth).

[3] = tested on: Staphylococcus aureus ATCC 6538; assay: Minimum Inhibitory Concentration (MIC), broth dilution, visual pellet reading; assay type: cell-based; conditions: S. aureus ATCC 6538, material alone, 37° C., 24 hours, average of triplicates
Description: The minimum inhibitory concentration (“MIC”) is the concentration (in ppm) of anti-bacterial agent that causes growth inhibition of bacteria so that no pellet is formed in the culture medium (as explained below in the method). […] Staphylococcus aureus ATCC 6538 is cultured onto tryptic soy agar (TSA) (Oxoid CM0131) over 24 hours. […] This gives 5×10^5 cfu/mL. […] The plate is then placed into a plastic sheet to minimize evaporation. The plate is then incubated at 37° C. for 24 hours. After 24 hours, the plate is removed and read visually to determine if a pellet is formed at the bottom of the well versus positive (without adding antibacterial material) and negative (without bacterial inoculum) growth controls. […] The experiment is carried out in triplicates and the MIC values are determined by the average of the results.

[4] = 3.125 ppm piroctone olamine combined with chelator (62.5 ppm DTPMP or 250 ppm DTPA), (MIC − cMIC)/MIC x 100%
[5] = 6.25 ppm piroctone olamine combined with chelator (15.6 ppm DTPMP or 125 ppm DTPA)
[6] = 6.25 ppm piroctone olamine combined with chelator (15.6 ppm DTPMP or 125 ppm DTPA), (MIC − cMIC)/MIC x 100%
[7] = in the presence of 3.125 ppm piroctone olamine
[8] = in the presence of 6.25 ppm piroctone olamine

| Compound | Log K1 (iron binding affinity) [1] | Antibacterial Efficiency of piroctone olamine boosted by Chelator [2, 4] | boost of antibacterial efficacy of piroctone olamine alone (fold) [2, 5] | Antibacterial Efficiency of piroctone olamine boosted by Chelator [2, 6] | MIC: minimum amount of chelant at which there is no bacteria growth [2] | cMIC: minimum amount of chelant at which there is no bacteria growth in the presence of piroctone olamine [2, 7] | cMIC: minimum amount of chelant at which there is no bacteria growth in the presence of piroctone olamine [2, 8] | MIC (ppm) [3] | other results |
| --- | --- | --- | --- | --- | --- | --- | --- | --- | --- |
| O=C(O)CC(O)(CC(=O)O)C(=O)O [Citric Acid] | 11 | – | – | – | – | – | – | – | – |
| O=C(O)CN(CCN(CC(=O)O)CC(=O)O)CCN(CC(=O)O)CC(=O)O [DTPA, diethylenetriaminepentaacetic acid] | 28 | 75% | 2 fold | 50% | 500^# ppm | 250^## ppm | 125^## ppm | 500 ppm | – |
| O=P(O)(O)CN(CCN(CP(=O)(O)O)CP(=O)(O)O)CCN(CP(=O)(O)O)CP(=O)(O)O [DTPMP, Diethylenetriaminepentakis (methylenephosphonic acid)] | 23 | 75% | 2 fold | 50% | 250^# ppm | 62.5^## ppm | 15.6^## ppm | 250 ppm | boost of antibacterial efficacy of piroctone olamine alone (fold) ([2]; 3.125 ppm piroctone olamine combined with chelator (62.5 ppm DTPMP or 250 ppm chelator)): 4 fold |
| CC(=O)N(O)CCCCCNC(=O)CCC(=O)N(O)CCCCCNC(=O)CCC(=O)N(O)CCCCCN [Desferrioxamine, reference compound] | 31 | – | – | – | – | – | – | – | – |
| CC(C(=O)O)N(CC(=O)O)CC(=O)O (stereo not shown) [MGDA, Methylglycine diacetic acid] | 16 | – | – | – | – | – | – | – | – |
| Cc1cc(CC(C)CC(C)(C)C)n(O)c(=O)c1.NCCO (stereo not shown) [reference compound] | – | – | – | – | – | – | – | – | Antibacterial Efficiency of piroctone olamine boosted by Chelator ([2]; 12.5 ppm piroctone olamine, 0 ppm chelator): 0; cMIC: minimum amount of piroctone olamine at which there is no bacteria growth in the presence of chelant ([2]; in the presence of 125 ppm DTPA): 6.25** ppm; cMIC: minimum amount of piroctone olamine at which there is no bacteria growth in the presence of chelant ([2]; in the presence of 250 ppm DTPA): 3.125** ppm; MICpiroctone olamine: minimum amount of the salt at which there is no bacteria growth ([2]; piroctone olamine alone (0 ppm chelator)): 12.5* ppm; MIC ([3]; Staphylococcus aureus, ATCC6538): 12.5 µg/mL |
